This note sets out measurements from patent US7101878B1 (Agouron Pharmaceuticals, Inc., priority 1998, dated 2006).

In the first assay the target is T1, mouse GnRH receptor (Mus musculus, UniProt Q01776).
T1 construct: expressed in transfected cells; host or cells: 293 cells
T1 sequence (Q01776 1-327): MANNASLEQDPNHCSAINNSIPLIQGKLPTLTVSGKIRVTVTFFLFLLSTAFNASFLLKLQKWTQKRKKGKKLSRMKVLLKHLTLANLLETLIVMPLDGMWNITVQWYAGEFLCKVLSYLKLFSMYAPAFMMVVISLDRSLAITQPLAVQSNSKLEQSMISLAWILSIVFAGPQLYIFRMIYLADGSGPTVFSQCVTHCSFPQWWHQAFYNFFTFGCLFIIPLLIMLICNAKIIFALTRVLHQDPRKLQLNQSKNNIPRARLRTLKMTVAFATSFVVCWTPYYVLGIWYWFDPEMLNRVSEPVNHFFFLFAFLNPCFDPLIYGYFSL
Put plainly: Radioligand binding, 125I-GnRH-A, 293 cells expressing mouse GnRH receptors. Conditions: 10 uM. In short, it runs like this:
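Bound label captured on 0.1% polyethyleneimine-treated GF/C filters, washed three times with PBS, counted. IC50 derived; identical set-up for every species.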
`Cc1cc2c(cc1Cc1ccc(C(=O)NC(CO)C(C)C)o1)C(C)(C)CCC2(C)C` (stereo not drawn) [drawing 1479]: the “% Inhib. @ 10 uM mGnRH” value is recorded as 103%.

The assay is the same for the next values; noted with them: 10 uM; read-out: % Inhib. @ 10 uM mGnRH.
With `Cc1cc2c(cc1Cc1ccc(C(=O)NC(C)C3CCCCC3)o1)C(C)(C)CCC2(C)C` (stereo not drawn) [drawing 1463], the inhibition at 10 µM turned out to be 72%.
The same measure, in the same setting: next, `Cc1cc2c(cc1Cc1ccc(C(=O)NC3(CO)CCCC3)o1)C(C)(C)CCC2(C)C` [drawing 1464]: 98%.
Still for that read-out and setting: the result for `Cc1cc2c(cc1Cc1ccc(C(=O)NC(CO)CC3CCCCC3)o1)C(C)(C)CCC2(C)C` (stereo not drawn) [drawing 1465] reads 76%; that for `Cc1cc2c(cc1Cc1ccc(C(=O)NC[C@@H]3CCCC[C@H]3O)o1)C(C)(C)CCC2(C)C` [drawing 1466], 97%.
Same read-out and setting: next, `Cc1cc2c(cc1Cc1ccc(C(=O)N3CCC(C(=O)c4ccc(F)cc4)CC3)o1)C(C)(C)CCC2(C)C` [drawing 1467]: 63%; `Cc1cc2c(cc1Cc1ccc(C(=O)N3CCN(c4cccc(C)c4C)CC3)o1)C(C)(C)CCC2(C)C` [drawing 1468]: 58%.
With `Cc1cc2c(cc1Cc1ccc(C(=O)NCC(O)c3ccccc3)o1)C(C)(C)CCC2(C)C` (stereo not drawn) [drawing 1470], the inhibition at 10 µM is 101%.
Same read-out and setting: next, `Cc1cc2c(cc1Cc1ccc(C(=O)N(C)CCC=C3c4ccccc4CCc4ccccc43)o1)C(C)(C)CCC2(C)C` [drawing 1472]: 58%.
In the case of `Cc1cc2c(cc1Cc1ccc(C(=O)N(CCC#N)Cc3cccnc3)o1)C(C)(C)CCC2(C)C` [drawing 1473], the inhibition at 10 µM came out at 91%.
Take `Cc1cc2c(cc1Cc1ccc(C(=O)N(Cc3ccc(C(C)C)cc3)Cc3cccnc3)o1)C(C)(C)CCC2(C)C` [drawing 1474]: the inhibition at 10 µM is 76%.
The same measure, in the same setting: the result for `Cc1cc2c(cc1Cc1ccc(C(=O)N(Cc3cccnc3)Cc3cccc(C(F)(F)F)c3)o1)C(C)(C)CCC2(C)C` [drawing 1475] reads 80%.
`Cc1cc2c(cc1Cc1ccc(C(=O)NC(CO)C(C)C)o1)C(C)(C)CCC2(C)C` (stereo not drawn) [drawing 1478]: the inhibition at 10 µM was determined as 87%.
Same read-out and setting: the result for `CCCN(Cc1ccc([N+](=O)[O-])cc1)C(=O)c1ccc(Cc2cc3c(cc2C)C(C)(C)CCC3(C)C)o1` [drawing 1480] reads 66%; that for `CCC(CO)NC(=O)c1ccc(Cc2cc3c(cc2C)C(C)(C)CCC3(C)C)o1` (stereo not drawn) [drawing 1481], 89%.
Same read-out and setting: the result for `Cc1cc2c(cc1Cc1ccc(C(=O)NCc3ccc(F)cc3)o1)C(C)(C)CCC2(C)C` [drawing 1482] reads 97%.
Regarding `Cc1cc2c(cc1Cc1ccc(C(=O)NCCn3c([N+](=O)[O-])cnc3C)o1)C(C)(C)CCC2(C)C` [drawing 1486], the inhibition at 10 µM was found to be 42%.
As for `Cc1cc2c(cc1Cc1ccc(C(=O)NCCCOC(C)C)o1)C(C)(C)CCC2(C)C` [drawing 1487], the inhibition at 10 µM was 93%.
The same measure, in the same setting: the result for `Cc1cc2c(cc1Cc1ccc(C(=O)N(CCCN3CCN(C)CC3)Cc3cc(C)n(-c4cccc(C(F)(F)F)c4)c3C)o1)C(C)(C)CCC2(C)C` [drawing 1488] reads 102%.
Still for that read-out and setting: next, `Cc1cc2c(cc1Cc1ccc(C(=O)N(CCN(C)C)Cc3cccc4ccccc34)o1)C(C)(C)CCC2(C)C` [drawing 1489]: 103%; `Cc1cc2c(cc1Cc1ccc(C(=O)N(CCCN3CCN(C)CC3)Cc3ccc(F)cc3)o1)C(C)(C)CCC2(C)C` [drawing 1490]: 103%; `Cc1cc2c(cc1Cc1ccc(C(=O)N(CCN(C)C)Cc3ccccc3[N+](=O)[O-])o1)C(C)(C)CCC2(C)C` [drawing 1491]: 103%.
On the same count and under the same terms, the result for `Cc1cc2c(cc1Cc1ccc(C(=O)N(CCC3CCCN3C)Cc3ccc4ccccc4c3)o1)C(C)(C)CCC2(C)C` (stereo not drawn) [drawing 1492] reads 105%.
As to `Cc1cc2c(cc1Cc1ccc(C(=O)N3CCC(C)CC3)o1)C(C)(C)CCC2(C)C` [drawing 1493], the inhibition at 10 µM was determined as 82%.
As to `CCOC(=O)CN(Cc1ccccc1)C(=O)c1ccc(Cc2cc3c(cc2C)C(C)(C)CCC3(C)C)o1` [drawing 1494], the inhibition at 10 µM was determined as 62%.
For the molecule `Cc1cc2c(cc1Cc1ccc(C(=O)N3CCC(C(=O)c4ccccc4)CC3)o1)C(C)(C)CCC2(C)C` [drawing 1495], the inhibition at 10 µM came out at 59%.
Regarding `COc1cccc(N2CCN(C(=O)c3ccc(Cc4cc5c(cc4C)C(C)(C)CCC5(C)C)o3)CC2)c1` [drawing 1497], the inhibition at 10 µM amounted to 67%.
The same measure, in the same setting: next, `Cc1cc2c(cc1Cc1ccc(C(=O)NCCSCCO)o1)C(C)(C)CCC2(C)C` [drawing 1498]: 101%; `CCC(C)CNC(=O)c1ccc(Cc2cc3c(cc2C)C(C)(C)CCC3(C)C)o1` (stereo not drawn) [drawing 1499]: 73%; `Cc1cc2c(cc1Cc1ccc(C(=O)N(C)CC3OCCO3)o1)C(C)(C)CCC2(C)C` [drawing 1500]: 86%.
Same read-out and setting: next, `Cc1cc2c(cc1Cc1ccc(C(=O)N(CC(C)C)CC(C)C)o1)C(C)(C)CCC2(C)C` [drawing 1501]: 85%.
For `Cc1cc2c(cc1Cc1ccc(C(=O)N3C[C@H]4CCCC[C@H]4CC3C(=O)NC(C)(C)C)o1)C(C)(C)CCC2(C)C` (stereo partly drawn) [drawing 1502], the inhibition at 10 µM stood at 52%.
On the same count and under the same terms, the result for `CC(=O)N1CCCN(C(=O)c2ccc(Cc3cc4c(cc3C)C(C)(C)CCC4(C)C)o2)CC1` [drawing 1503] reads 73%; that for `Cc1cc2c(cc1Cc1ccc(C(=O)N(Cc3ccco3)C3CC(=O)N(C)C3=O)o1)C(C)(C)CCC2(C)C` (stereo not drawn) [drawing 1504], 69%.
With `COC(CNC(=O)c1ccc(Cc2cc3c(cc2C)C(C)(C)CCC3(C)C)o1)OC` [drawing 1505], the inhibition at 10 µM turned out to be 103%.
As to `CCN(CC)CCNC(=O)c1ccc(Cc2cc3c(cc2C)C(C)(C)CCC3(C)C)o1` [drawing 1506], the inhibition at 10 µM was 94%.
The same measure, in the same setting: the result for `Cc1cc2c(cc1Cc1ccc(C(=O)NCC(C)(C)CN(C)C)o1)C(C)(C)CCC2(C)C` [drawing 1507] reads 98%; that for `Cc1cc2c(cc1Cc1ccc(C(=O)NC3CCS(=O)(=O)C3)o1)C(C)(C)CCC2(C)C` (stereo not drawn) [drawing 1508], 90%.
Same read-out and setting: the result for `Cc1cc2c(cc1Cc1ccc(C(=O)N3CCC(O)CC3)o1)C(C)(C)CCC2(C)C` [drawing 1510] reads 77%; that for `Cc1cc2c(cc1Cc1ccc(C(=O)N3CCC4(CC3)C(=O)NCN4c3ccccc3)o1)C(C)(C)CCC2(C)C` [drawing 1511], 72%.
`Cc1cc2c(cc1Cc1ccc(C(=O)N3CCC(O)(c4ccc(Br)cc4)CC3)o1)C(C)(C)CCC2(C)C` [drawing 1512]: the inhibition at 10 µM is 49%.
Consider `COc1cccc(N2CCN(C(=O)c3ccc(Cc4cc5c(cc4C)C(C)(C)CCC5(C)C)o3)CC2C)c1` (stereo not drawn) [drawing 1513], for which the inhibition at 10 µM is 76%.
The same measure, in the same setting: next, `Cc1cc2c(cc1Cc1ccc(C(=O)N3CCc4ccccc4C3Cc3ccccc3)o1)C(C)(C)CCC2(C)C` (stereo not drawn) [drawing 1515]: 46%; `Cc1cc2c(cc1Cc1ccc(C(=O)N(C)CCCN(C)C)o1)C(C)(C)CCC2(C)C` [drawing 1516]: 92%; `Cc1cc2c(cc1Cc1ccc(C(=O)NCCCCCCN(C)C)o1)C(C)(C)CCC2(C)C` [drawing 1519]: 106%.
Same read-out and setting: the result for `Cc1cccc(N2CCN(C(=O)c3ccc(Cc4cc5c(cc4C)C(C)(C)CCC5(C)C)o3)CC2C)c1` (stereo not drawn) [drawing 1520] reads 73%.
On to `Cc1cc2c(cc1Cc1ccc(C(=O)NCCc3ccc(Cl)cc3)o1)C(C)(C)CCC2(C)C` [drawing 1521], for which the inhibition at 10 µM is 81%.
Still for that read-out and setting: next, `Cc1cc2c(cc1Cc1ccc(C(=O)NC3CCCCC3O)o1)C(C)(C)CCC2(C)C` (stereo not drawn) [drawing 1522]: 97%.
`Cc1cc2c(cc1Cc1ccc(C(=O)N3CCCC(C)(C)C3)o1)C(C)(C)CCC2(C)C` [drawing 1523]: the inhibition at 10 µM was found to be 98%.
Same read-out and setting: the result for `CCN(C(=O)c1ccc(Cc2cc3c(cc2C)C(C)(C)CCC3(C)C)o1)C1CCCCC1` [drawing 1524] reads 100%; that for `Cc1cc2c(cc1Cc1ccc(C(=O)NCCc3c[nH]c4ccc(O)cc34)o1)C(C)(C)CCC2(C)C` [drawing 1526], 84%.
Regarding `Cc1cc2c(cc1Cc1ccc(C(=O)NCCO)o1)C(C)(C)CCC2(C)C` [drawing 1527], the inhibition at 10 µM came out at 53%.
Still for that read-out and setting: next, `Cc1cc2c(cc1Cc1ccc(C(=O)NCCc3ccc(Oc4ccccc4)cc3)o1)C(C)(C)CCC2(C)C` [drawing 1529]: 57%; `CCOC(=O)N1CCN(C(=O)c2ccc(Cc3cc4c(cc3C)C(C)(C)CCC4(C)C)o2)CC1` [drawing 1530]: 65%.
Same read-out and setting: next, `Cc1cc2c(cc1Cc1ccc(C(=O)N(C)CCC#N)o1)C(C)(C)CCC2(C)C` [drawing 1531]: 83%.
For `COc1ccc(CCNC(=O)c2ccc(Cc3cc4c(cc3C)C(C)(C)CCC4(C)C)o2)cc1Br` [drawing 1532], the inhibition at 10 µM turned out to be 78%.
For the molecule `Cc1cc2c(cc1Cc1ccc(C(=O)N3CCN(Cc4ccc(C(C)(C)C)cc4)CC3)o1)C(C)(C)CCC2(C)C` [drawing 1534], the inhibition at 10 µM came out at 65%.
As to `Cc1cc2c(cc1Cc1ccc(C(=O)N(Cc3cccnc3)Cc3ccco3)o1)C(C)(C)CCC2(C)C` [drawing 1535], the inhibition at 10 µM amounted to 89%.
Regarding `Cc1cc2c(cc1Cc1ccc(C(=O)N(CCC#N)CCC#N)o1)C(C)(C)CCC2(C)C` [drawing 1536], the inhibition at 10 µM came out at 77%.
Same read-out and setting: the result for `CCC(O)CNC(=O)c1ccc(Cc2cc3c(cc2C)C(C)(C)CCC3(C)C)o1` (stereo not drawn) [drawing 1537] reads 99%.
